Measurements as given in patent US11576913B2 (priority 2018, dated 2023).
Where two headings read alike, the source gives them in different places.

How the values were obtained:
Type in all cases: in vivo, human
[1] = clinical; settings: for mean fraction of dose excreted unchanged in urine over 48 hours (Fe48): day 1; for mean fraction of dose excreted unchanged in urine over 24 hours (Fe24): day 16
[2] = clinical; settings: for Fe, Mean (CV %): unchanged in urine; for CLr, Mean / Tmax / half-life / AUC / CL renal / Cmax: human, in vivo; for half-life: read-out: T1/2, Mean (CV %) (converted); for AUC / Cmax: Mean (CV %); for CL renal: CLr, Mean
Text: This study was designed to evaluate the safety and pharmacokinetic (“PK”) interactions between Compound (1C) and alcohol in healthy subjects. […] The study was designed as a single-site, randomized, single-dose, double-blinded, placebo-controlled crossover study, and 46 subjects completed treatment as part of the study.
The dose of alcohol at 0.7 g/kg was consistent with the NIAAA definition of binge drinking, which can lead to blood alcohol concentration of approximately 0.08 g/dL. In the United States this is generally considered the level at which a person is legally impaired. In addition, such dose level has been studied in previously completed relevant alcohol interaction study in which the safety and tolerability were established in a similar population (Hong Sun et al. “Psychomotor effects, pharmacokinetics and safety of the orexin receptor antagonist suvorexant administered in combination with alcohol in healthy subjects.” Journal of Psychopharmacology 2015, Vol. 29(11) 1159-1169).
Briefly, blinded alcoholic beverage or placebo beverage was consumed over a 20- to 30-minute period. The beverage was divided into 3 parts, with approximately ⅓ administered (consumed to completion by subject at their own pace) every 10 minutes, […], in order to control for drinking rate.
Subjects swallowed Compound (1C) with the alcoholic beverage, with small sips of water as needed if the subject could not drink the alcohol quickly enough to consume the alcohol. […] A mouthwash with water was provided before and at the end of dosing. A mouth check was performed to verify that the Compound (1C) doses administered are swallowed. Vital signs and oxygen saturation, SpO2, (FIG. 26) were collected for evaluation by the investigator.
AUCt Area under the plasma concentration-time curve from hour 0 to the last measurable plasma concentration, calculated by the linear trapezoidal method.
AUCinf Area under the plasma concentration-time curve extrapolated to infinity:
Where Ct is the last measurable plasma concentration and […] is the apparent terminal phase rate constant;
Cmax Maximum observed plasma concentration
Tmax Time to maximum plasma concentration
T1/2 Apparent terminal phase half-life: T1/2=(ln2)/λz

[3] = test system: subjects suffering from the Insomnia Disorder adult insomnia
Description: Following the evening-time dosing with study drug, subjects underwent eight hours of continuous PSG recording. Next-day residual effects were assessed by the DSST and the KSS evaluation, collected in that order, starting at approximately 30 minutes after “lights-on.” All tests were administered in the clinical unit, beginning 30 minutes after lights-on and periodically thereafter for approximately 16 hours post-lights-off, following completion of PSG recording. Each subject also completed a post-sleep questionnaire once after lights-on so that subjective impressions could be assessed about the “quality” and “quantity” of their sleep. Before the second night dosing in each dosing period, subjects were evaluated for any residual sleepiness. […] Subjects remained in the clinic until residual symptoms were minimized.
The well-known KSS measures, subjectively, the level of a subject's sleepiness at a specific time of the day and was therefore useful as another indication of next day residual effects, if any. The KSS comprised a 9-step scale (ranging from, e.g., “extremely alert” (assigned 1 point) to alert (assigned 3 points) to “neither sleepy nor alert” (assigned 5 points) to “sleepy” (assigned 7 points) to “extremely sleepy” (assigned 9 points)) that characterized sleepiness at a particular time during the day (within 5 minutes of the assessment).
In a paper-and-pencil evaluation, each subject checked a box corresponding to the point of the scale that best characterized their state of drowsiness experienced during the preceding 5 minutes. The KSS evaluation followed the DSST after each night of the baseline visit (Visit 2) and after each night of Dosing Periods 1-5 according to the schedule set out in the previous example.
The KSS evaluation results shown, other than for the baseline, are the mean results obtained from the KSS evaluation scores following all nights of Dosing Periods 1-5 for the indicated dose. The KSS evaluation results for the baseline are the mean results obtained following the first and second nights of the baseline visit. Note that for clarity of display purposes, in FIG. 7 many of the test results at each time period, e.g., at approximately ½ hour after lights-on/9 hours post-dosing, were staggered arbitrarily away from the actual time when the test was conducted.

[4] = clinical
Description: (§1) The highest doses tested in healthy subjects were for a 30-mg single dose and a 10-mg multiple dose (once daily nighttime dose for 14 days). The highest dose tested in subjects with insomnia was 10 mg.

[5] = test system: healthy subjects and subjects with insomnia
Description: as §1
The most frequent treatment-emergent adverse event (TEAEs) experienced by subjects was somnolence.

SMILES: O=C(O)c1nc2ccccc2n([C@H]2C[C@H]3CCC[C@@H](C2)N3C2CC3CCCC(C3)C2)c1=O (stereo partly drawn) [Compound (1C)]
- mean fraction of dose excreted unchanged in urine over 48 hours (Fe48) ([1]; 0.6 mg): 96%
- mean fraction of dose excreted unchanged in urine over 24 hours (Fe24) ([1]; 0.6 mg): 90%
- mean fraction of dose excreted unchanged in urine over 48 hours (Fe48) ([1]; 2 mg): 100%
- mean fraction of dose excreted unchanged in urine over 24 hours (Fe24) ([1]; 2 mg): 102%
- mean fraction of dose excreted unchanged in urine over 48 hours (Fe48) ([1]; 10 mg): 84%
- mean fraction of dose excreted unchanged in urine over 24 hours (Fe24) ([1]; 10 mg): 81%
- time of urinary excretion of most of the unchanged compound ([1]; across the dose range, days 1 and 16): during the first 8 hours
- CL renal ([1]; human, in vivo, all dose levels, days 1 and 16, read-out: mean CLr): 274 to 354 mL/min
- Fe, Mean (CV %) ([2]; 2 mg + EtOH (0.7 g/kg)): 84 (33) %
- Urine Fe, Mean ([2]; 2 mg Alone (N = 48)): 80.7%
- Fe, Mean (CV %) ([2]; 2 mg alone): 81 (12) %
- PK profile of ethanol on co-administration of Compound (1C) ([2]; 2 mg or 6 mg with ethanol vs ethanol with placebo, FIG. 24): not affected
- Urine Fe, Mean ([2]; 2 mg with Alcohol (N = 46)): 83.6%
- Fe, Mean (CV %) ([2]; 6 mg + EtOH (0.7 g/kg)): 80 (20) %
- Urine Fe, Mean ([2]; 6 mg Alone (N = 47)): 80.8%
- Fe, Mean (CV %) ([2]; 6 mg alone): 81 (10) %
- Urine Fe, Mean ([2]; 6 mg with Alcohol (N = 48)): 79.6%
- effect of alcohol on the PK profile of Compound (1C) ([2]; 2 and 6 mg with 0.7 g/kg ethanol): does not alter the PK profile
- CLr, Mean ([2]; 2 mg): 12.7 L/h
- Tmax ([2]; 2 mg): 1.7 h
- half-life ([2]; 2 mg + EtOH (0.7 g/kg)): 3.9 h
- half-life ([2]; 2 mg, 2 mg alone): 4 h
- AUC ([2]; 2 mg): 130 ng·h/mL
- CL renal ([2]; 2 mg): 210 mL/min
- Cmax ([2]; 2 mg): 28.2 ng/mL
- CLr, Mean ([2]; 6 mg): 12.3 L/h
- Tmax ([2]; 6 mg): 1.9 h
- half-life ([2]; 6 mg + EtOH (0.7 g/kg)): 4.5 h
- half-life ([2]; 6 mg, 6 mg alone): 4.5 h
- AUC ([2]; 6 mg): 402 ng·h/mL
- CL renal ([2]; 6 mg): 198 mL/min
- Cmax ([2]; 6 mg): 78.3 ng/mL
- next day residual effects by mean KSS evaluation results vs placebo ([3]; 0.5 mg, about 9 to about 16 hours post-dosing): no next day residual effects
- next day residual effects by mean KSS evaluation results vs placebo ([3]; 1.0 mg, about 9 to about 16 hours post-dosing): no next day residual effects
- next day residual effects by mean KSS evaluation results vs placebo ([3]; 3.0 mg, each of the testing times): some next day residual effects
- next day residual effects by mean KSS evaluation results vs placebo ([3]; 6.0 mg, each of the testing times): some next day residual effects
- major elimination pathway ([4]; human): Renal elimination
- major metabolite in human plasma ([4]; human plasma): No major metabolite has been identified
- renal clearance (adjusted by plasma protein binding) compared with glomerular filtration rate ([4]; human, in vivo): higher than the human glomerular filtration rate
- Tmax ([4]; human, in vivo, po): ~1.5 h
- half-life ([4]; human, in vivo, po): 2 to 3 h
- dose proportionality of exposure ([4]; once a day dosing for 2 weeks): approximately dose-proportional exposure up to 10 mg
- dose proportionality of exposure ([4]; single oral administration): approximately dose-proportional exposure up to 10 mg
- unchanged drug recovered in urine ([4]; within 48 hours): 80-100%
- tolerability ([5]; 6 mg, nighttime dosing, healthy subjects and those with insomnia): well tolerated
- safety and tolerability ([5]; across all tested dose levels): safe and well tolerated
- serious adverse events (SAEs) ([5]; across all tested dose levels): no serious adverse events
- most frequent treatment-emergent adverse event ([5]; completed clinical studies): somnolence
- vital signs and electrocardiograms (ECGs) ([5]; completed clinical studies): no clinically significant findings
- next day residual effects ([5]; dose equal or lower than 2 mg, after 8 hours post dosing): dose-dependent and generally decreased (back to placebo levels)
- laboratory findings ([5]; including crystalluria or hematuria): No concerning laboratory findings
